Results as given in patent publication US20160045442A1, “STABLE PHARMACEUTICAL COMPOSITIONS OF MESALAMINE” (CADILA HEALTHCARE LIMITED, priority 2014, published 2016).

Experiment: Bulk density and tapped density of mesalamine powder (USP Test 616)
Type: physicochemical
Conditions: mesalamine used to prepare the composition as per Example 3
From the text: Important physicochemical characteristics of powders are the density properties such as bulk and tapped density, weight variation and flow properties such as angle of repose. Bulk density is the undisturbed packing density of that substance and tapped density relates to the packing density after tapping a bed of substance until no change in the packing density is seen. Bulk density and tapped density, can be determined using compendial bulk density apparatus, such as the method given in Test 616 “Bulk Density and Tapped Density,” United States Pharmacopeia 29, United States Pharmacopeial Convention, Inc., Rockville, Md., 2005 (“USP”).

With Nc1ccc(O)c(C(=O)O)c1 [Mesalamine, mesalamine] the bulk density was 0.483 g/mL and the tapped density was 0.694 g/mL.
